This note sets out measurements from ChEMBL document CHEMBL4138158, “2-Arylbenzofurans from Artocarpus lakoocha and methyl ether analogs with potent cholinesterase inhibitory activity” (Eur J Med Chem, 2018).

pIC50: −log10 of the molar value. Calls of active or inactive are those of the source. The calls are words filed in the database; no cut-off is given here.

Experiment [1] is described as follows: Selectivity ratio of IC50 for BChE (unknown origin) to IC50 for electric eel AChE.
Experiment [2] has as its target Acetylcholinesterase (Electrophorus electricus, UniProt O42275). Kind of experiment: Inhibition of electric eel AChE using acetylthiocholine as substrate preincubated for 15 mins followed by substrate addition measured after 5 mins by Ellman's method.
The target in experiment [3] is T1, Cholinesterase (Homo sapiens, UniProt P06276). In words: Potency index, ratio of galantamine IC50 to compound IC50 for inhibition of BChE (unknown origin).
The target in experiment [4] is T1, Cholinesterase. Kind of experiment: Inhibition of BChE (unknown origin) using thiocholine as substrate preincubated for 15 mins followed by substrate addition measured after 5 mins by Ellman's method.
Experiment [5] deals with Acetylcholinesterase (Electrophorus electricus) (UniProt O42275). Kind of experiment: Potency index, ratio of galantamine IC50 to compound IC50 for inhibition of electric eel AChE.
Experiment [6] shares this target. Kind of experiment: Inhibition of electric eel AChE at 0.1 mg/ml using acetylthiocholine as substrate preincubated for 15 mins followed by substrate addition measured after 5 mins by Ellman's method.
Experiment [7] deals with T1, Cholinesterase. Kind of experiment: Inhibition of BChE (unknown origin) at 0.1 mg/ml using thiocholine as substrate preincubated for 15 mins followed by substrate addition measured after 5 mins by Ellman's method.

Chain of Acetylcholinesterase (O42275 whole entry): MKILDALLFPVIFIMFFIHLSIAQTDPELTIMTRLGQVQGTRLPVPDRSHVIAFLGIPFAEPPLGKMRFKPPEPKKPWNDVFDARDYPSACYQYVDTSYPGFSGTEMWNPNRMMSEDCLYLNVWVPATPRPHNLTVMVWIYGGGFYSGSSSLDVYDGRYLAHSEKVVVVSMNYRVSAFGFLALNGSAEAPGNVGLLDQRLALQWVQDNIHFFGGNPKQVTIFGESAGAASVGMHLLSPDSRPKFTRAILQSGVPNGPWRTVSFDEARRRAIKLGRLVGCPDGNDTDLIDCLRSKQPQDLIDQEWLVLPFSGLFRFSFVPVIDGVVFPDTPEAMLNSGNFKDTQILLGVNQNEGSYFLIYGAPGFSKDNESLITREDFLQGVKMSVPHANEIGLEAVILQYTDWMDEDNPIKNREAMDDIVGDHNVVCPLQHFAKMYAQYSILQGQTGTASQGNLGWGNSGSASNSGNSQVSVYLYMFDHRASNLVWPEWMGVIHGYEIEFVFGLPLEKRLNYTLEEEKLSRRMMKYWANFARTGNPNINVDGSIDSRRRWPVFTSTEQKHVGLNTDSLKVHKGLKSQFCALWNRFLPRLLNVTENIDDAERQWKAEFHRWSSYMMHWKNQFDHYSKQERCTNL
Chain of Acetylcholinesterase (Electrophorus electricus) (O42275 24-633 limits assumed): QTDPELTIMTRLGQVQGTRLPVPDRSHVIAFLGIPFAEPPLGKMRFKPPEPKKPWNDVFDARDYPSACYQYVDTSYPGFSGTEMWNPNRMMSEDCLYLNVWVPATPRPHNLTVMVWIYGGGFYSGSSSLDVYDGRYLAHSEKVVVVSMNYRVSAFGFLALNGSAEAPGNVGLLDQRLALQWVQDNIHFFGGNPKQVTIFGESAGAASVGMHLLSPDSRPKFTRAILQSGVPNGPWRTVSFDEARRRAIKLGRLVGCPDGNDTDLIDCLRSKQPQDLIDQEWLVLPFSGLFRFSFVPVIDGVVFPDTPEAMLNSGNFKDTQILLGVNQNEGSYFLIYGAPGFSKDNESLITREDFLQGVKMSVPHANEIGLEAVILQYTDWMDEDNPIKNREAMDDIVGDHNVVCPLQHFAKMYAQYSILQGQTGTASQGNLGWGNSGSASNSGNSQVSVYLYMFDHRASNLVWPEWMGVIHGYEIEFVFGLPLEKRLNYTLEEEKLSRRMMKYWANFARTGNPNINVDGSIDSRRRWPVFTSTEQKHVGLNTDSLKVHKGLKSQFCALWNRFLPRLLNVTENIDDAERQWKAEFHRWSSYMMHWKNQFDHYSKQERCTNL
T1 sequence (P06276 whole entry): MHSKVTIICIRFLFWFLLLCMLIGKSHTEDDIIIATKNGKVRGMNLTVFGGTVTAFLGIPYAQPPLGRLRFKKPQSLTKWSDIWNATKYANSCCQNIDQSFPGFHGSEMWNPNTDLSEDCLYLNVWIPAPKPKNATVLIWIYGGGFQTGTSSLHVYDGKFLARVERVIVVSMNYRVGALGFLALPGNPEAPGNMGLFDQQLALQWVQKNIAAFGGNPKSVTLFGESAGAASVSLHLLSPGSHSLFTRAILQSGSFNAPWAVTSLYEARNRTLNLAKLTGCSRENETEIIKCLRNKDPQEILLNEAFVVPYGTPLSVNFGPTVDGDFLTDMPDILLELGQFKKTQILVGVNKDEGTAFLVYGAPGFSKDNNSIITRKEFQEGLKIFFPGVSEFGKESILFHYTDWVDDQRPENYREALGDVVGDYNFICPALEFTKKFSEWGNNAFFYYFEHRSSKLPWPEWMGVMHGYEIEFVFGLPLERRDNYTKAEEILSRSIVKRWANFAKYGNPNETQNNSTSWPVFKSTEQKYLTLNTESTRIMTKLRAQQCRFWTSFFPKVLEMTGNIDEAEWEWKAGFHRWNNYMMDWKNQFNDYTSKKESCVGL

For `CC(C)=CCC/C(C)=C/Cc1c(O)cc(O)c(CC=C(C)C)c1-c1cc2ccc(O)cc2o1` [LAKOOCHIN B], the Ratio IC50 in experiment [1] stood at 0.09; in experiment [3], 37; in experiment [5] it was 2. Also, the pIC50 in experiment [2] is 5.97; in experiment [4], 7.00.
Consider `COc1cc(O)c(C/C=C(\C)CCC=C(C)C)c(-c2cc3ccc(O)cc3o2)c1CC=C(C)C`, for which the inhibition entry in experiment [6] was “inactive”. Besides, in experiment [3], the Ratio IC50 was under 10. This compound also gave a pIC50 in experiment [4] of 6.29.
Regarding `Oc1cc(O)c2c(c1)O[C@H](c1ccc(O)c(O)c1)[C@@H](O)C2`, the inhibition result in experiment [6] and in experiment [7] was “inactive” in each case.
In the case of `COc1cc(-c2cc3ccc(O)cc3o2)c(CC=C(C)C)c2c1C=CC(C)(CCC=C(C)C)O2` (centres undefined), the inhibition result in experiment [6] was “inactive”. In addition, the Ratio IC50 in experiment [3] was under 10. The pIC50 in experiment [4] is 6.51.
`COc1ccc2cc(-c3c(CC=C(C)C)c(O)cc(O)c3C/C=C(\C)CCC=C(C)C)oc2c1`: the inhibition result in experiment [6] was “inactive”. Besides, the Ratio IC50 in experiment [3] was under 10. The compound also gave a pIC50 in experiment [4] of 6.00.
With `COc1ccc2cc(-c3cc(O)c4c(c3CC=C(C)C)OC(C)(CCC=C(C)C)C=C4)oc2c1` (centres undefined), the inhibition entry in experiment [6] is “inactive”. In addition, in experiment [3], the Ratio IC50 is under 10. For the same compound, the pIC50 in experiment [4] is 5.95.
Turning to `CC(C)=CCCC1(C)C=Cc2c(O)cc(-c3cc4ccc(O)cc4o3)c(CC=C(C)C)c2O1` (centres undefined), the values for the Ratio IC50 in experiment [1] and in experiment [5] were 17.2 and 2, respectively. For the same compound, the pIC50 was 6.06 in experiment [2] and 4.83 in experiment [4].
For `COc1cc(O)c(CC=C(C)C)c(-c2cc3ccc(O)c(C/C=C(\C)CCC=C(C)C)c3o2)c1`, the Ratio IC50 in experiment [1] turned out to be 0.76. Besides, the figures for the pIC50 in experiment [2] and in experiment [4] were 4.21 and 4.33, respectively.
Consider `CC(C)=CCc1c(-c2cc3ccc(O)cc3o2)cc2c3c1O[C@@]1(C)CCC([C@@H]3C1)C(C)(C)O2` (some centres undefined), for which, in experiment [6], the inhibition entry was “inactive”. In experiment [4], this compound showed a pIC50 of 5.81.
As to `CC(C)=CCCC1(C)C=Cc2c(O)cc(-c3cc4c(O)cc(O)cc4o3)c(CC=C(C)C)c2O1` (centres undefined), the values for the Ratio IC50 in experiment [1] and in experiment [5] were 8.05 and 2, respectively. For the same compound, the values for the pIC50 in experiment [2] and in experiment [4] were 5.96 and 5.05, respectively.
Consider `Oc1cc(O)cc(/C=C/c2ccc(O)cc2O)c1` [OXYRESVERATROL], for which the inhibition result in experiment [6] was “inactive”. The same compound gave a pIC50 in experiment [4] of 5.53.
For the compound `COc1ccc2cc(-c3cc(OC)c4c(c3CC=C(C)C)OC(C)(CCC=C(C)C)C=C4)oc2c1` (centres undefined), the inhibition result in experiment [6] and in experiment [7] was “inactive” in each case.
As for `COc1cc(OC)c(C/C=C(\C)CCC=C(C)C)c(-c2cc3ccc(O)cc3o2)c1CC=C(C)C`, the inhibition entry in experiment [6] and in experiment [7] was “inactive” in each case.
On to `COc1cc(O)c(CC=C(C)C)c(-c2cc3ccc(O)cc3o2)c1C/C=C(\C)CCC=C(C)C`, for which the inhibition result in experiment [6] was “inactive”. In addition, the Ratio IC50 in experiment [3] was under 10. For the same compound, the pIC50 in experiment [4] was 6.20.
For the compound `COc1cc(OC)c(CC=C(C)C)c(-c2cc3ccc(O)cc3o2)c1CC=C(C)C` [LAKOOCHIN A], in experiment [1], the Ratio IC50 was 0.5. Further, the pIC50 in experiment [2] is 4.56; in experiment [4], 4.86.
